Patent US9718833B2, “Tritoqualine hydrochloride in crystalline form and a process for obtaining same” (priority 2013, dated 2017)
Values after ≈ are worked out from the molar mass of the structure shown.

Columns and labels:
[1] = in water at room temperature; background statement; cited from earlier work
[2] = target: T1, L-histidine decarboxylase (Homo sapiens, UniProt P19113); settings: background statement; cited from earlier work
T1 sequence (P19113 1-662): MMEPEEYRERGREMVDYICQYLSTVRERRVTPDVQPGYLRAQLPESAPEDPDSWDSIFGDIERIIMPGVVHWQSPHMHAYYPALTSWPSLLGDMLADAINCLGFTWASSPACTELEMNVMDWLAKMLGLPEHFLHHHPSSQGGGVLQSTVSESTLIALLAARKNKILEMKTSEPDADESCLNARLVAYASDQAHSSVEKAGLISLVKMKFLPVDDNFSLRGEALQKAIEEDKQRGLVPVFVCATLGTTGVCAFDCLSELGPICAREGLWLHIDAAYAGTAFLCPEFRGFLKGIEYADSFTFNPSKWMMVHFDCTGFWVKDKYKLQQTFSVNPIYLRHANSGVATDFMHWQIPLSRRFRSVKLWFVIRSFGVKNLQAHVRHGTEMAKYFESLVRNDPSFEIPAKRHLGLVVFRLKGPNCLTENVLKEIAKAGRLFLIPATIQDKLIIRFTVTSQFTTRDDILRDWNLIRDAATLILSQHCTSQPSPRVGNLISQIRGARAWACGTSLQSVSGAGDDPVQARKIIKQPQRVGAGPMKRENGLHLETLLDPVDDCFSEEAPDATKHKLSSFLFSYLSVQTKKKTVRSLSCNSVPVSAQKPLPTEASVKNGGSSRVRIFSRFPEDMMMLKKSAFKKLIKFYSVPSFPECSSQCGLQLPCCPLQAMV

physchem = settings: organic solvent or mixture
[3] = Solubility in organic solvents (ethers, alcohols, glycols, ketones); type: physicochemical
[4] = hydrochloride formed in situ by addition of hydrochloric acid to tritoqualine in solution; background statement; cited from earlier work
Solubility in ethanol = settings: at 20° C.

| melting point [°C] | solubility (physchem; 20 °C) [mg/mL] | solubility (physchem) [mg/mL] | Solubility in alcohols and glycols compared with tritoqualine base ([3]; alcohols and glycols) | Solubility in ethers ([3]; ethers) | Solubility in primary alcohols, acetone and methyl ethyl ketone ([3]; primary alcohols, acetone, methyl ethyl ketone) | Behaviour in aqueous solution at pH>3.0 (Solubility in water) | Solubility in ethanol (Solubility in ethanol) [g/l at] | Compound | Solubility in water [1] [ppm] | Activity as enzymatic inhibitor of L-histidine decarboxylase [2] | Half lifetime in an aqueous solution [4] |
| --- | --- | --- | --- | --- | --- | --- | --- | --- | --- | --- | --- |
| 184 | 2.5 (≈ 4.99 mM) | 50 (≈ 99.9 mM) |  |  |  |  |  | CCOc1c(N)c2c(c(OCC)c1OCC)C(C1c3c(cc4c(c3OC)OCO4)CCN1C)OC2=O (centres unmarked) [Base, 7-amino-4,5,6-triethoxy-3-(4-methoxy-6-methyl-7,8-dihydro-5H-[1,3]dioxolo[4,5-g]isoquinoline-5-yl)-3H-isobenzofuran-1-one] | 100 | very low |  |
|  |  |  | much more soluble than tritoqualine base | very little soluble or even insoluble | soluble | precipitates | >300 | tritoqualine hydrochloride |  |  | a few hours |
